These results are taken from PMC11323011, “Combatting Antibiotic-Resistant Staphylococcus aureus: Discovery of TST1N-224, a Potent Inhibitor Targeting Response Regulator VraRC, through Pharmacophore-Based Screening and Molecular Characterizations” (Journal of Chemical Information and Modeling, 2024).

This assay addresses T1, VraRC (C-terminal DNA-binding domain of response regulator VraR) (Staphylococcus aureus, UniProt Q7A4R9).
T1 construct: residues 138-209), C-terminal His-tag
Nature of the assay: LSPR (VraRC immobilized on NTA chip, […] fit); supported by 1H-15N HSQC NMR titration and FP inhibition of DNA binding (IC50 […]).

T1 sequence (Q7A4R9 138-209): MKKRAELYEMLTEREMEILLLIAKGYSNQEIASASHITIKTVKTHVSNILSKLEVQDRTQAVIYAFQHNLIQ

Regarding TST1N-224, the equilibrium dissociation constant (Kd) (commonly the free concentration of one partner at which half of the binding sites on the other are occupied at equilibrium, for simple one-to-one binding) turned out to be 23.4 ± 1.2 µM.
